The results in this text go back to paper PMC12040169 (PLOS Biology, 2025).

The data set is described as follows: in vitro. To be noted: human, hela cells.

Turning to `CCc1nn(C)cc1CNC1CCCN(c2ccc(C#N)cc2)C1=O` (stereo not drawn) [CBK304176], the viability at 28.5 h, 10 µM (% viability) was determined as 96.4%.

Consider `CC1CCc2c(sc(NC(=O)Cn3cnc([N+](=O)[O-])n3)c2C(N)=O)C1` (stereo not drawn) [CBK263064], for which, for the setting “% viability”, the viability at 28.5 h, 10 µM was 91.3%.

On to `O=C(Nc1ccc(OC(=O)N2CCCCC2)cc1)N1CCCCC1` [CBK090060], for which the viability at 28.5 h, 10 µM turned out to be 88.6%. For the molecule `Nc1csc(C2CCOCC2)n1` [CBK019258], the viability at 28.5 h, 10 µM (% viability) is 77.3%. On the same count and under the same terms, as for `FC(F)(F)c1cccc(Oc2nnnn2-c2ccccc2)c1` [CBK002798], the figure is 92.6%; as for `Cc1ccc2c(c1)C(C[C@H]1CN(C(=O)c3ccco3)CC[C@H]1CC(=O)O)=NCC2` [CBK289162], 79.1%; as for `CN1C(=O)COc2ccccc2CCCC[C@@H]2[C@H]1CCCN2C(=O)CCCn1cccn1` [CBK292090], 111%. For `O=C(c1cc(-c2ccncc2)nc2ccc(Cl)cc12)N1CCN(CCc2ccccc2)CC1` [CBK267719], the viability at 28.5 h, 10 µM (% viability) was determined as 86.6%. The same measure, in the same setting: with `Cn1nccc1C(=O)N[C@H]1C2CCCCC2[C@@H]1c1ccccc1` (stereo partly drawn) [CBK285127] the figure was 102%. With `Cc1nc2sccn2c1CN1CCc2sccc2C1C` (stereo not drawn) [CBK282807], under “% viability”, the viability at 28.5 h, 10 µM worked out at 92.4%.

In the case of `COc1ccccc1-c1nnc(NC(=O)Cc2cccs2)s1` [CBK287361], the viability at 28.5 h, 10 µM (% viability) was determined as 93.5%. The same measure, in the same setting: with `Cc1ccc(C)c(C(NC(=O)CCCn2ccnc2)c2ccncc2)c1` (stereo not drawn) [CBK281476] the figure was 96.1%; with `CSc1ncc(C(=O)N2CCN3CCN(C)CC3C2)c(=O)[nH]1` (stereo not drawn) [CBK307677], 104%; with `O=C(O)c1cccc(NC(=O)c2cccc(S(=O)(=O)Nc3ccc(Cl)cc3)c2)c1` [CBK261261], 92.6%. As for `CC(=O)Oc1cc(C(F)(F)F)nc(NCc2ccc(Cl)cc2)n1` [CBK000500], the viability at 28.5 h, 10 µM (% viability) was determined as 94.7%. Still for that read-out and setting: as for `CCOC(=O)NC(=O)Nc1cc2ccccc2c(Br)n1` [CBK063282], the figure is 88.1%; as for `c1ccc2c(c1)CCC[C@H]2Oc1cncc(N2CCNCC2)n1` [CBK172388G], 90.7%; as for `Cc1nnnn1CCC(=O)NCCc1cn2ccccc2n1` [CBK306816], 121%. The same measure, in the same setting: as for `Cn1c(=O)[nH]c(=O)c2c1nc(SCCN1CCOCC1)n2CCCc1ccccc1` [CBK269234], the figure is 95.5%; as for `O=C(CN1CCC(c2ccccc2F)CC1)N1CCOCC1` [CBK283548], 89.3%; as for `Cc1ccc(S(=O)(=O)Cc2ccc(C(=O)N3CCN(Cc4ccccc4)CC3)cc2)cc1` [CBK269588], 86.1%. On the same count and under the same terms, with `CCOC(=O)C1(C2CCCCC2)CCN(C(=O)c2cscn2)CC1` [CBK137101] the figure was 82.1%; with `CS(=O)(=O)c1ccc(-c2ccc3c(c2)COC(C2CCN(C(=O)c4ccccc4O)CC2)O3)cc1` (stereo not drawn) [CBK158682], 85.3%; with `Cc1ccc(S(=O)(=O)Nc2ccc(N3C[C@@H](C)N[C@@H](C)C3)c3ccccc23)cc1` [CBK001486C], 87.8%. Turning to `O=C(CC1(O)C(=O)N(Cc2ccc3c(c2)OCO3)c2ccccc21)c1cccnc1` (stereo not drawn) [CBK269633], for the setting “% viability”, the viability at 28.5 h, 10 µM turned out to be 103%. Still for that read-out and setting: as for `O/N=C1\CC2(CCCCC2)c2ccccc21` [CBK013318], the figure is 83%.

As for `CC(C)Nc1cc(OC2CCN(C)CC2)ncn1` [CBK113280], the viability at 28.5 h, 10 µM (% viability) was determined as 83.6%. Take `Cc1noc(C)c1S(=O)(=O)Nc1cc(C(F)(F)F)ccc1N1CCOCC1` [CBK062545]: the viability at 28.5 h, 10 µM (% viability) is 90.4%.

With `CC1=[N+]([O-])C2(N)CCc3nonc3C2(O)C1` (stereo not drawn) [CBK261513], the viability at 28.5 h, 10 µM (% viability) came to 87.9%.

On to `CC(C)[C@@H](CO)Nc1nccnc1-c1ccoc1` [CBK036648], for which, under “% viability”, the viability at 28.5 h, 10 µM is 86.6%. On to `Cc1nc2cc(C(=O)O)ccc2n1CCO` [CBK260949], for which, for the setting “% viability”, the viability at 28.5 h, 10 µM was 106%. Regarding `CCSCCN1CCC(Oc2nccnc2OCc2ccc(Br)cc2F)CC1` [CBK161087], for the setting “% viability”, the viability at 28.5 h, 10 µM came out at 98.7%. In the case of `Cc1n[nH]c(=S)n1-c1ccc(Cl)cc1` [CBK012457], the viability at 28.5 h, 10 µM (% viability) is 94.5%. As to `Cc1ccc2oc(=O)cc(N/N=C(\Cl)C(N)=S)c2c1` [CBK022357], for the setting “% viability”, the viability at 28.5 h, 10 µM was 85.8%. In the case of `O=C(Cc1cc(F)cc(F)c1F)Nc1ccc2[nH]ccc2c1` [CBK159686], for the setting “% viability”, the viability at 28.5 h, 10 µM worked out at 87.4%. `OCCN(Cc1ccncc1)CC1(c2ccc(Cl)cc2)CC1` [CBK282782]: the viability at 28.5 h, 10 µM (% viability) is 90.7%. Same read-out and setting: as for `Cc1nn(CCNC(=O)C2CC(=O)N(Cc3ccccn3)C2)c(C)c1Cl` (stereo not drawn) [CBK307316], the figure is 85.1%; as for `O=C1CC(c2ccco2)Cc2c1cnn2-c1nc2ccccc2s1` (stereo not drawn) [CBK269292], 81.4%; as for `OC1(c2cccnc2F)CCN(Cc2cccc(F)c2F)CC1` [CBK284375], 96.2%.

Turning to `O=C(O)CN1C(=O)CC2(C1=O)C(=O)N(Cc1ccccc1)c1ccccc12` (stereo not drawn) [CBK076093], the viability at 28.5 h, 10 µM (% viability) came to 116%. On the same count and under the same terms, as for `Cc1ccc2c(C(=O)Nc3sc4c(c3C(N)=O)CCCCC4)cc(-c3ccccn3)nc2c1C` [CBK267749], the figure is 94%. In the case of `Clc1cncc(N2CCCC2)n1` [CBK083595], for the setting “% viability”, the viability at 28.5 h, 10 µM is 118%. Take `COc1ccc2[nH]c(Sc3c([N+](=O)[O-])nc(C)n3Cc3ccccc3)nc2c1` [CBK263235]: under “% viability”, the viability at 28.5 h, 10 µM was found to be 80.7%.

Turning to `CSc1nnc2c(n1)[nH]c1ccccc12` [CBK025967], for the setting “% viability”, the viability at 28.5 h, 10 µM came out at 96.6%. The same measure, in the same setting: as for `CCN(CC)C(=O)N1CCN(CCCC(=O)c2ccc(F)cc2)CC1` [CBK025042C], the figure is 85.4%; as for `CNCC1CCCN(Cc2cn(-c3ccc(Br)cc3)nc2C)C1` (stereo not drawn) [CBK304301C], 99.7%. For `CN1CCN(C(=O)c2ccc(-c3cccc(C(F)(F)F)c3)nc2N2CCOCC2)CC1` [CBK106194], for the setting “% viability”, the viability at 28.5 h, 10 µM is 94%. The same measure, in the same setting: as for `Cc1ncccc1COC(=O)N1CCCC(F)C1` (stereo not drawn) [CBK200155], the figure is 118%; as for `CCC12CN3CC(CC)(CN(C1)C3c1ccccc1[N+](=O)[O-])C2=O` (stereo not drawn) [CBK264604], 116%.

With `CCn1c(=O)c(C=Cc2cccc(Br)c2)nc2cc(C(=O)O)ccc21` [CBK295364], the viability at 28.5 h, 10 µM (% viability) worked out at 110%. On the same count and under the same terms, with `CCN1CCC2(CC1)Nc1cc(Cl)c(S(N)(=O)=O)cc1S(=O)(=O)N2` [CBK010418C] the figure was 97.7%; with `Cc1ccccc1-c1nc(S(=O)(=O)c2ccc(Cl)cc2)c(NCC2CCCO2)o1` (stereo not drawn) [CBK267668], 113%; with `O=C(CCn1c(C(F)(F)F)cc2cccnc21)N1CCCC1` [CBK284962], 106%. Still for that read-out and setting: with `COc1cccc(C(=O)NCCC(=O)N2CCc3c(nc[nH]c3=O)C2)c1` [CBK307231] the figure was 103%; with `NC(=O)C1(N2CCCCC2)CCN(CC(=O)Nc2ccc(Br)cc2)CC1` [CBK268364], 86.2%; with `Cc1cc(=O)[nH]c(CCNc2cc([C@H]3C[C@@H](N)C3)nc(C3CC3)n2)n1` [CBK307651], 103%. The same measure, in the same setting: as for `Cc1nn(C)c(C)c1CC(=O)N1CCc2c(sc3ncnc(N)c23)C1` [CBK306065], the figure is 86.9%. Consider `Cn1cc(CN2CCC(CNc3ccccn3)C2)cn1` (stereo not drawn) [CBK304705], for which, for the setting “% viability”, the viability at 28.5 h, 10 µM amounted to 101%. Take `C=C(C)Cn1c(SCC(C)C)nnc1-c1ccccc1OC` [CBK200071]: the viability at 28.5 h, 10 µM (% viability) was found to be 91.5%.

Take `O=C(c1ccccc1F)N1CCCC(c2cc3ncccc3cn2)C1` (stereo not drawn) [CBK284710]: the viability at 28.5 h, 10 µM (% viability) turned out to be 83.3%. The same measure, in the same setting: with `CCOC(=O)CCCNC(=O)N1CCCC(C(=O)N(CC)CC)C1` (stereo not drawn) [CBK156158] the figure was 92.3%; with `Cc1cc(C23CC4CC(CC(C(=O)O)(C4)C2)C3)c(C)cc1C12CC3CC(CC(C(=O)O)(C3)C1)C2` [CBK261734], 112%.

As to `Cc1cc(Cl)ccc1OCCCc1nnc(S)n1C` [CBK288396], the viability at 28.5 h, 10 µM (% viability) came out at 85.1%. For `CC(=O)Oc1cc(Cl)ccc1C(=O)Nc1nnc(C(F)(F)F)s1` [CBK017569], the viability at 28.5 h, 10 µM (% viability) was 84%. The same measure, in the same setting: as for `Cc1ccc(OCCCSc2nnc(N)[nH]2)cc1` [CBK269215A], the figure is 89.1%; as for `CCOc1oc2cc(O)ccc2c1C(=O)CSC1CCCCC1` [CBK022262], 87.1%; as for `NC(=O)CN1CCC(Oc2nccnc2OCc2cccnc2)CC1` [CBK083165], 107%.

Regarding `COc1cc(CNc2cc(-c3cccc4cccnc34)ncn2)cc(OC)c1OC` [CBK091179], the viability at 28.5 h, 10 µM (% viability) came out at 76.6%. On the same count and under the same terms, with `Cn1ccnc1C(NC(=O)c1ccncc1)c1ccc(F)c(F)c1` (stereo not drawn) [CBK283808] the figure was 104%; with `Cc1cc(C)cc(NC(=O)Cn2cnc3c(sc4ccccc43)c2=O)c1` [CBK287807], 82.5%; with `Fc1ccccc1CSc1nc2ccc[nH]c-2n1` [CBK287883], 91.2%. On the same count and under the same terms, with `COCCNC(=O)c1cc(-c2ccc(C)cc2)nc2c1cnn2C(C)C` [CBK305033] the figure was 93.8%. The same measure, in the same setting: with `O=C(O)CCSCC(=O)c1ccc(OC(F)F)cc1` [CBK286991] the figure was 84.6%. Consider `O=S(=O)(CCSc1ccc(Cl)cc1)Oc1ccccc1` [CBK261021], for which, under “% viability”, the viability at 28.5 h, 10 µM is 102%.

As for `CN1CCN(c2nc(-c3ccco3)cnc2N)CC1` [CBK063449], the viability at 28.5 h, 10 µM (% viability) was 109%. The same measure, in the same setting: with `c1ccc(COC(c2ccccc2)c2nc3ccccc3n2Cc2ccccc2)cc1` (stereo not drawn) [CBK267311] the figure was 98.2%. As for `O=C(Nc1cccc(C(=O)O)c1)/C(=C\c1ccc2c(c1)OCO2)NC(=O)c1ccccc1Cl` [CBK263746], the viability at 28.5 h, 10 µM (% viability) is 96.4%.

With `C=CCn1c(Cc2csc(NC(=O)c3ccc(Cl)cc3)n2)n[nH]c1=S` [CBK295318], the viability at 28.5 h, 10 µM (% viability) was found to be 86.7%. Regarding `O=S(=O)(Nc1cccc(OC(F)(F)F)c1)c1ccc(N2CCNCC2)c2ccccc12` [CBK003935C], the viability at 28.5 h, 10 µM (% viability) came to 111%. With `O=C(Nc1nc2ccc(Br)cc2s1)C1CC1` [CBK026046], where the note is “% viability”, the viability at 28.5 h, 10 µM turned out to be 108%. As for `COc1ccc(C(C)c2cc3c(cc2O)OCO3)cc1` (stereo not drawn) [CBK200100], where the note is “% viability”, the viability at 28.5 h, 10 µM was determined as 90.3%.

Usually viability stands for a read-out of living cells in per cent, often relative to untreated cells.
